# Legend:
# [1] = Ocular tolerability; format: in vivo
# [2] = tested on: normotensive Dutch Belted rabbits; experiment: Intraocular pressure (IOP) after single dose in normotensive rabbits; format: in vivo, rabbit
# Experimental: Water (pH 4.5, made isotonic with sodium chloride), was selected as vehicle for the IOP-studies.
# Five concentrations (0.01, 0.05, 0.2, 0.5 and 1.0% w/v) of CHF 1035 were studied. Brimonidine (0.2% w/v) was used as a positive, and vehicle (water pH 4.5) as a negative control.
# The experimental animals used were normotensive Dutch Belted rabbits of either gender (n=6). A single drop (25 μl) of the test solution was instilled unilaterally into the left eye (treated eye). IOP of the rabbits (treated and untreated eyes) was measured at 1 and 0 h before, and at 0.5, 1, 2, 3, 4, 5, 6 and 7 h after topical eyedrop administration. IOP at the time of eyedrop administration (0 h) was used as a baseline value. IOP was measured using a BioRad Pneumatonometer. More detailed description of the IOP measurement procedure can be found in Pharm. Res. 14, 1738-1743, 1997 and Curr. Eye Res. 14, 791-797, 1995. All the studies were set up using a randomized crossover design. At least 72 h of wash-out time was allowed for each rabbit between dosings. The irritation caused by an instilled eyedrop were evaluated by recording the extent of eyelid closure after topical eyedrop administration.
# [3] = topical single dose, normotensive rabbits
structure (smiles),measurement,setting,value
"CNC1CCc2c(ccc(OC(=O)C(C)C)c2OC(=O)C(C)C)C1 (racemic) [CHF 1035, (±)-(R,S)-5,6-diisobutyryloxy-2-methylaminotetralin]","concentration up to which well tolerated (no redness, blinking or other side effects)",[1],up to 5%
same,duration of action compared with brimonidine,[2]; normotensive rabbits,longer duration of action than brimonidine
same,effectiveness in decreasing IOP compared with brimonidine,[2]; normotensive rabbits,more effective in decreasing IOP than brimonidine
same,onset of action,[2]; normotensive rabbits,late onset of action
same,IOP decrease in the untreated eye,[2]; [3],no significant IOP decrease is observed in the untreated eye
same,effect on IOP in the treated eye,[2]; [3],decreases significantly the IOP in the treated eye
same,IOP changes (mean ± SEM) in the treated eye,"[2]; 0.01% w/v, 0 min",0.0 ± 0.0 mmHg
same,IOP changes (mean ± SEM) in the treated eye,"[2]; 0.01% w/v, 30 min",−1.9 ± 0.9 mmHg
same,IOP changes (mean ± SEM) in the treated eye,"[2]; 0.01% w/v, 60 min",−4.2 ± 1.1 mmHg
same,IOP changes (mean ± SEM) in the treated eye,"[2]; 0.01% w/v, 120 min",−5.3 ± 0.7 mmHg
same,IOP changes (mean ± SEM) in the treated eye,"[2]; 0.01% w/v, 180 min",−5.0 ± 1.0 mmHg
same,IOP changes (mean ± SEM) in the treated eye,"[2]; 0.01% w/v, 240 min",−4.5 ± 1.3 mmHg
same,IOP changes (mean ± SEM) in the treated eye,"[2]; 0.01% w/v, 300 min",−4.3 ± 0.9 mmHg
same,IOP changes (mean ± SEM) in the treated eye,"[2]; 0.01% w/v, 360 min",−2.6 ± 0.6 mmHg
same,IOP changes (mean ± SEM) in the treated eye,"[2]; 0.01% w/v, 420 min",−1.3 ± 0.8 mmHg
same,IOP changes (mean ± SEM) in the treated eye,"[2]; 0.05% w/v, 0 min",0.0 ± 0.0 mmHg
same,IOP changes (mean ± SEM) in the treated eye,"[2]; 0.05% w/v, 30 min",−0.4 ± 0.5 mmHg
same,IOP changes (mean ± SEM) in the treated eye,"[2]; 0.05% w/v, 60 min",−3.3 ± 0.4 mmHg
same,IOP changes (mean ± SEM) in the treated eye,"[2]; 0.05% w/v, 120 min",−6.5 ± 0.9 mmHg
same,IOP changes (mean ± SEM) in the treated eye,"[2]; 0.05% w/v, 180 min",−6.3 ± 0.9 mmHg
same,IOP changes (mean ± SEM) in the treated eye,"[2]; 0.05% w/v, 240 min",−6.7 ± 0.8 mmHg
same,IOP changes (mean ± SEM) in the treated eye,"[2]; 0.05% w/v, 300 min",−6.4 ± 0.8 mmHg
same,IOP changes (mean ± SEM) in the treated eye,"[2]; 0.05% w/v, 360 min",−5.5 ± 0.7 mmHg
same,IOP changes (mean ± SEM) in the treated eye,"[2]; 0.05% w/v, 420 min",−4.3 ± 0.5 mmHg
same,IOP changes (mean ± SEM) in the treated eye,"[2]; 0.2% w/v, 0 min",0.0 ± 0.0 mmHg
same,IOP changes (mean ± SEM) in the treated eye,"[2]; 0.2% w/v, 30 min",0.8 ± 0.9 mmHg
same,IOP changes (mean ± SEM) in the treated eye,"[2]; 0.2% w/v, 60 min",−0.4 ± 1.1 mmHg
same,IOP changes (mean ± SEM) in the treated eye,"[2]; 0.2% w/v, 120 min",−2.1 ± 0.7 mmHg
same,IOP changes (mean ± SEM) in the treated eye,"[2]; 0.2% w/v, 180 min",−6.0 ± 0.9 mmHg
same,IOP changes (mean ± SEM) in the treated eye,"[2]; 0.2% w/v, 240 min",−6.3 ± 1.0 mmHg
same,IOP changes (mean ± SEM) in the treated eye,"[2]; 0.2% w/v, 300 min",−7.6 ± 1.5 mmHg
same,IOP changes (mean ± SEM) in the treated eye,"[2]; 0.2% w/v, 360 min",−6.9 ± 1.0 mmHg
same,IOP changes (mean ± SEM) in the treated eye,"[2]; 0.2% w/v, 420 min",−5.7 ± 1.1 mmHg
same,IOP changes (mean ± SEM) in the treated eye,"[2]; 0.5% w/v, 0 min",0.0 ± 0.0 mmHg
same,IOP changes (mean ± SEM) in the treated eye,"[2]; 0.5% w/v, 30 min",1.8 ± 0.6 mmHg
same,IOP changes (mean ± SEM) in the treated eye,"[2]; 0.5% w/v, 60 min",1.2 ± 0.7 mmHg
same,IOP changes (mean ± SEM) in the treated eye,"[2]; 0.5% w/v, 120 min",0.1 ± 0.7 mmHg
same,IOP changes (mean ± SEM) in the treated eye,"[2]; 0.5% w/v, 180 min",−5.0 ± 1.2 mmHg
same,IOP changes (mean ± SEM) in the treated eye,"[2]; 0.5% w/v, 240 min",−5.6 ± 0.6 mmHg
same,IOP changes (mean ± SEM) in the treated eye,"[2]; 0.5% w/v, 300 min",−7.9 ± 0.9 mmHg
same,IOP changes (mean ± SEM) in the treated eye,"[2]; 0.5% w/v, 360 min",−6.9 ± 0.8 mmHg
same,IOP changes (mean ± SEM) in the treated eye,"[2]; 0.5% w/v, 420 min",−7.0 ± 0.8 mmHg
same,IOP changes (mean ± SEM) in the treated eye,"[2]; 1.0% w/v, 0 min",0.0 ± 0.0 mmHg
same,IOP changes (mean ± SEM) in the treated eye,"[2]; 1.0% w/v, 30 min",1.3 ± 0.9 mmHg
same,IOP changes (mean ± SEM) in the treated eye,"[2]; 1.0% w/v, 60 min",0.4 ± 1.0 mmHg
same,IOP changes (mean ± SEM) in the treated eye,"[2]; 1.0% w/v, 120 min",0.1 ± 0.9 mmHg
same,IOP changes (mean ± SEM) in the treated eye,"[2]; 1.0% w/v, 180 min",−3.2 ± 1.8 mmHg
same,IOP changes (mean ± SEM) in the treated eye,"[2]; 1.0% w/v, 240 min",−4.9 ± 1.5 mmHg

# Reference: patent US6953813B1, “2-Aminotetralin derivatives for the therapy of glaucoma” (Chiesi Farmaceutici S.p.A., priority 1999, dated 2005)
